From patent US9328138B2 (priority 2011, dated 2016)

Key:
[1] = biological target: T1, HCV genotype 1b (BK) NS3 modified enzyme with a R155K mutation (Hepatitis C virus genotype 1b, UniProt P26663, R1181K); assay: HCV NS3 protease time-resolved fluorescence (TRF) assay, genotype 1b R155K; assay type: biochemical; conditions: Ki 1b R155K
T1 construct: HCV genotype 1b (BK) NS3 modified enzyme
In short: (§1)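 Pre-incubation of NS3/NS4A protease with inhibitor for 10 min in pH 7.5 HEPES buffer with 10 mM DTT; 25 nM TRF peptide substrate, hydrolysis 6 h at room temperature. Fluorescence read at ex 340/em 615 nm with 400 μs delay, enzyme level set for S/B 5-20; IC50 by four-parameter fit.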

[2] = biological target: HCV NS3 protease genotype 3a (3A-1) (Hepatitis C virus genotype 3a, UniProt Q81258); assay: HCV NS3 protease time-resolved fluorescence (TRF) assay, genotype 3a; assay type: biochemical; conditions: Ki 3a
In short: as §1

[3] = genotype 1b (BK) NS3 R155K, single value
[4] = first of two values printed in the cell (not explained)
[5] = second of two values printed in the cell (not explained)

SMILES	Ki [1, 3] [nM]	Ki [2] [nM]	Ki [1, 4] [nM]	Ki [1, 5] [nM]
C=C[C@@H]1C[C@]1(NC(=O)[C@@H]1C[C@@H]2CN1C(=O)[C@H](C1CCCC1)NC(=O)O[C@@H]1CCC[C@H]1CC/C=C/Cc1c(nc3ccccc3c1OCCCOCCOC)O2)C(=O)NS(=O)(=O)C1CC1 [Example 47, (3aR,7S,10S,12R,21E,24aS)-7-cyclopentyl-N-{(1R,2S)-1-[(cyclopropylsulfonyl)carbamoyl]-2-ethenylcyclopropyl}-19-[3-(2-methoxyethoxy)propoxy]-5,8-dioxo-1,2,3,3a,5,6,7,8,11,12,20,23,24,24a-tetradeca-hydro-10H-9,12-methanocyclopenta[18,19] [1,10,3,6]dioxadiazacyclononadecino[11, 12-b]quinoline-10-carboxamide]	0.12	2.9	–	–
C=C[C@@H]1C[C@]1(NC(=O)[C@@H]1C[C@@H]2CN1C(=O)[C@H](C1CCCC1)NC(=O)O[C@@]1(C)CCC[C@@H]1CCCCCc1c(nc3ccccc3c1O)O2)C(=O)NS(=O)(=O)C1CC1 [Example 30, (3aS,7S,10S,12R,24aS)-7-cyclopentyl-N-{(1R,2S)-1-[(cyclopropylsulfonyl)carbamoyl]-2-ethenylcyclopropyl}-19-hydroxy-3a-methyl-5,8-dioxo-1,2,3,3a,5,6,7,8,11,12,20,21,22,23,24,24a-hexa-decahydro-10H-9,12-methanocyclopenta[18,19] [1,10,3,6]dioxadiazacyclononadecino[11,12-b] quinoline-10-carboxamide]	1.3	4.9	–	–
C=C[C@@H]1C[C@]1(NC(=O)[C@@H]1C[C@@H]2CN1C(=O)[C@H](C1CCCC1)NC(=O)O[C@@H]1CCC[C@H]1CC/C=C/Cc1c(nc3ccccc3c1OCCCNC(=O)OC(C)(C)C)O2)C(=O)NS(=O)(=O)C1CC1 [Example 84, tert-butyl (3-{[(3aR,7S,10S,12R,21E,24aS)-7-cyclopentyl-10-({(1R,2S)-1-[(cyclopropylsulfonyl)carbamoyl]-2-ethenylcyclopropyl}carbamoyl)-5,8-dioxo-1,2,3,3a,5,6,7,8,11,12, 20,23,24,24a-tetradecahydro-10H-9,12-methanocyclopenta[18,19][1,10,3,6]dioxadiazacyclononadecino [11,12-b]quinolin-19-yl]oxy}propyl)carbamate]	0.24	7.2	–	–
C=C[C@@H]1C[C@]1(NC(=O)[C@@H]1C[C@@H]2CN1C(=O)[C@H](C(C)(C)C)NC(=O)O[C@@H]1C[C@H]1CCCCCc1c(nc3c(F)cccc3c1OCCN1CCC1)O2)C(=O)NS(=O)(=O)C1(C)CC1 [Example 212, (1aR,5S,8S,10R,22aR)-17-[2-(azetidin-1-yl)ethoxy]-5-tent-butyl-N-[(1R,2S)-2-ethenyl-1-{[(1-methylcyclopropyl)sulfonyl]carbamoyl}cyclopropyl]-13-fluoro-3,6-dioxo-1,1a,3,4,5,6,9,10,18,19,20,21,22,22a-tetradecahydro-8H-7,10-methanocyclopropa[18,19][1,10,3,6] dioxadiazacyclononadecino[11,12-b]quinoline-8-carboxamide]	0.22	1.9	–	–
C=C[C@@H]1C[C@]1(NC(=O)[C@@H]1C[C@@H]2CN1C(=O)[C@H](C(C)(C)C)NC(=O)O[C@@H]1CCC[C@H]1CCCCCc1c(nc3ccccc3c1OCCN1CCCC1)O2)C(=O)NS(=O)(=O)C1(COC)CC1 [Example 102, (3aR,7S,10S,12R,24aR)-7-tert-butyl-N-[(1R,2S)-2-ethenyl-1-({[1-(methoxymethyl)cyclopropyl]sulfonyl}carbamoyl)cyclopropyl]-5,8-dioxo-19-[2-(pyrrolidin-1-yl)ethoxy]-1,2,3,3a, 5,6,7,8,11,12,20,21,22,23,24,24a-hexadecahydro-10H-9,12-methanocyclopenta[18,19] [1,10,3,6]dioxadiazacyclo-nonadecino[11,12-b]quinoline-10-carboxamide]	0.21	3.2	–	–
C=C[C@@H]1C[C@]1(NC(=O)[C@@H]1C[C@@H]2CN1C(=O)[C@H](C(C)(C)C)NC(=O)O[C@@H]1C[C@H]1CCCCCc1c(nc3ccccc3c1OCC1CN(C)C1)O2)C(=O)NS(=O)(=O)C1(C)CC1 [Example 224, (1aR,5S,8S,10R,22aR)-5-tert-butyl-N-[(1R,2S)-2-ethenyl-1-{[(1-methylcyclopropyl)sulfonyl]carbamoyl}cyclopropyl]-17-[(1-methylazetidin-3-yl)methoxy]-3,6-dioxo-1,1a,3,4,5,6,9,10,18,19,20,21,22,22a-tetradecahydro-8H-7,10-methanocyclopropa[18,19][1,10,3,6]dioxadiazacyclononadecino[11,12-b]quinoline-8-carboxamide]	0.061	0.67	–	–
COc1c2c(nc3ccccc13)O[C@@H]1C[C@H]3C(=O)N[C@]4(C(=O)NS(=O)(=O)C5(C)CC5)C[C@H]4/C=C\CCCCC[C@H](NC(=O)O[C@@H]4C[C@H]4CCC/C=C/2)C(=O)N3C1 [Example 300, (1aR,5S,11Z,12aS,13aR,16S,19R,27E,31aR)-26-methoxy-N-[(1-methylcyclopropyl)sulfonyl]-3,15,33-trioxo-1,1a,3,4,5,6,7,8,9,10,12a,13,15,16,18,19,29,30,31,31a-icosahydro-5,17:16,19-dimethanodicyclopropa[12,13:28,29][1,20,3,14,17]dioxatriazacyclononacosino[21,22-b]quinoline-13a(14H)-carboxamide]	0.23	7.1	–	–
C=C[C@@H]1C[C@]1(NC(=O)[C@@H]1C[C@@H]2CN1C(=O)[C@H](C(C)(C)C)NC(=O)O[C@@H]1C[C@H]1CCCCCc1c(nc3cc(C(C)C)ccc3c1OCCCN1CCCC1)O2)C(=O)NS(=O)(=O)C1(C)CC1 [Example 159, (1aR,5S,8S,10R,22aR)-5-tert-butyl-N-[(1R,2S)-2-ethenyl-1-{[(1-methylcyclopropyl)sulfonyl]carbamoyl}cyclopropyl]-3,6-dioxo-14-(propan-2-yl)-17-[3-(pyrrolidin-1-yl)propoxy]-1,1a,3,4,5,6,9, 10,18,19,20,21,22,22a-tetradecahydro-8H-7,10-methanocyclopropa[18,19] [1,10,3,6]dioxadiazacyclononadecino [11,12-b]quinoline-8-carboxamide]	0.05	0.53	–	–
C=C[C@@H]1C[C@]1(NC(=O)[C@@H]1C[C@@H]2CN1C(=O)[C@H](C(C)(C)C)NC(=O)O[C@@H]1C[C@H]1CCCCCc1c(nc3ccccc3c1OCC1CCN(CC)CC1)O2)C(=O)NS(=O)(=O)C1(C)CC1 [Example 227, (1aR,5S,8S,10R,22aR)-5-tert-butyl-N-[(1R,2S)-2-ethenyl-1-{[(1-methylcyclopropyl)sulfonyl]carbamoyl}cyclopropyl]-17-[(1-ethylpiperidin-4-yl)methoxy]-3,6-dioxo-1,1a,3,4,5,6,9,10,18,19,20,21,22,22a-tetradecahydro-8H-7,10-methanocyclopropa[18,19][1,10,3,6] dioxadiazacyclononadecino[11,12-b]quinoline-8-carboxamide]	0.095	0.36	–	–
C=C[C@@H]1C[C@]1(NC(=O)[C@@H]1C[C@@H]2CN1C(=O)[C@H](C1CCCCC1)NC(=O)O[C@@H]1C[C@H]1CCCCCc1c(nc3ccccc3c1OCCCN1CCN(C(=O)OC(C)(C)C)CC1)O2)C(=O)NS(=O)(=O)C1(C)CC1 [Example 264, tert-butyl 4-(3-{[(1aR,5S,8S,10R,22aR)-5-cyclohexyl-8-{[(1R,2S)-2-ethenyl-1-{[(1-methylcyclopropyl)sulfonyl]carbamoyl}cyclopropyl]carbamoyl}-3,6-dioxo-1,1a,3,4,5,6,9,10,18,19,20,21,22,22a-tetradecahydro-8H-7,10-methanocyclopropa[18,19][1,10,3,6]dioxadiazacyclononadecino[11,12-b]quinolin-17-yl]oxy}propyl)piperazine-1-carboxylate]	–	7.7	0.037	1.4
C=C[C@@H]1C[C@]1(NC(=O)[C@@H]1C[C@@H]2CN1C(=O)[C@H](C1CCCCC1)NC(=O)O[C@@H]1C[C@H]1CCCCCc1c(nc3ccccc3c1OC1CCN(C(=O)OC(C)(C)C)CC1)O2)C(=O)NS(=O)(=O)C1(C)CC1 [Example 235, tert-butyl 4-{[(1aR,5S,8S,10R,22aR)-5-cyclohexyl-8-{[(1R,2S)-2-ethenyl-1-{[(1-methylcyclopropyl)sulfonyl]carbamoyl}cyclopropyl]carbamoyl}-3,6-dioxo-1,1a,3,4,5,6,9,10,18,19,20,21,22,22a-tetradecahydro-8H-7,10-methanocyclopropa[18,19][1,10,3,6]dioxadiazacyclononadecino[11,12-b]quinolin-17-yl]oxy}piperidine-1-carboxylate]	–	203	0.53	4.36
C=C[C@@H]1C[C@]1(NC(=O)[C@@H]1C[C@@H]2CN1C(=O)[C@H](C1CCCC1)NC(=O)O[C@@H]1C[C@H]1CCCCCc1c(nc3ccccc3c1OCCN1CCOCC1)O2)C(=O)NS(=O)(=O)C1(C)CC1 [Example 121, (1aR,5S,8S,10R,22aR)-5-cyclopentyl-N-[(1R,2S)-2-ethenyl-1-{[(1-methylcyclopropyl)sulfonyl]carbamoyl}cyclopropyl]-17-[2-(morpholin-4-yl)ethoxy]-3,6-dioxo-1,1a,3,4,5,6,9,10,18,19,20,21,22, 22a-tetradeca hydro-8H-7,10-methanocyclopropa[18,19][1,10,3,6] dioxadiazacyclononadecino [11,12-b]quinoline-8-carboxamide]	0.38	12	–	–
